Measured values: PMC8342434, “Solubility of vitamin A in supercritical CO2: experimental study and thermodynamic modeling” (Scientific Reports, 2021)
Values after ≈ are worked out from the molar mass of the structure shown.

Experiment: Equilibrium solubility of vitamin A in supercritical CO2 (static cell, UV-VIS)
Assay type: physicochemical
Method: Figure 1 indicates the system used for measuring the equilibrium solubility. […] Consequently, the gas was liquefied through dropping the temperature to − 20 °C so that it was prepared for pumping function by means of pressure controlling instruments (TEBCO, Iran) with an uncertainty of ± 0.1 MPa.
After CO2 pumped into the inlet solvent stream, the methanol tank (as a co-solvent in this section) and modulator valve controlled the solvent concentration. The inlet solvent concentration should be regulated. Thus, it is an adjustable factor as function of solute content based on simultaneous data from experimental setup. The pressure of the circuit was taken into the collection container through altering amount of modulator on the injection tap. This includes a certain volume of solvent (CO2 and methanol). Providing the thermal equilibrium condition with the inner part of the oven in shorter time, this equilibrium spiral pipe can be utilized for efficient mixing of CO2 and modulators. The cell was put inside carefully (FG Model, BF400E, Iran) to keep the operating temperature (with ± 0.5 K).
Roughly before the start of the extraction, 500 mg of powder Retinol were put into the static cell with the volume of 10 mL and due to the pressure drop, downward flowrate (in line with weight force of the materials) was used. Eluding physical entrainment of the unextracted Vitamin A (Rich Retinol), the tops of the pressurized equilibrium cell were connected by means of the stainless-steel disks before SC-CO2 was distributed into the cell, its pressure was enhanced up to the anticipated pressure before it is moved through the equilibrium cell at operational conditions. In the present research, 60 min was estimated to achieve the state of equilibrium (in the cell).
In fact, the final sample (in the standard state) in two phases of gas (carbon dioxide) and liquid phase (solution containing methanol and vitamin A) It was stored in accumulation glass and entered the spectrophotometer. Finally, the solvent was used to clean the circuit.
As solubility values of Vitamin A were obtained in various conditions, they were noted by absorbency mensuration’s at λmax using a model 2100 UNICO UV–VIS spectrophotometer with 1000 nm Wavelength. The equilibrium mole fraction yA and equilibrium solubility, S(g/L) in SC-CO2 over the ranges of temperature and pressure obtained from below equation[21]:1 yA=nA/nA+nC where2 nA=CAg/L×VAL/MAg/mol 3 nC=VlL×ρg/L/MCg/mol where nA and nC are sample moles of vitamin A and solvent, CA is the concentration of vitamin A g/L in the accumulation glass calculated by the curve of calibration. The volumes of the accumulation vial are denoted by VAL and VlL is the sampling circuit. Furthermore, MA and MC are the molecular weights of Vitamin A and CO2, respectively. By combining the aforementioned, the subsequent relation is achieved (Eq. (4)).4 yA=CAg/L×VSL×MCg/mol/CAg/L×VAL×MCg/mol+VlL×ρg/L×MAg/mol
In order to obtain the g/L of Vitamin A in SC-CO2 […] was used[21].5 Sg/L=CAg/L×VAL/VlL

Mole fraction (SC-CO2, 303 K, 90 bar): 2.18e-05 | Mole fraction (SC-CO2, 303 K, 115 bar): 2.92e-05 | Mole fraction (SC-CO2, 303 K, 130 bar): 3.58e-05 | Mole fraction (SC-CO2, 303 K, 140 bar): 4.12e-05 | Mole fraction (SC-CO2, 303 K, 155 bar): 5.29e-05 | Mole fraction (SC-CO2, 303 K, 175 bar): 6.01e-05 | Mole fraction (SC-CO2, 303 K, 185 bar): 6.25e-05 | Mole fraction (SC-CO2, 303 K, 195 bar): 7.21e-05 | Mole fraction (SC-CO2, 303 K, 220 bar): 7.96e-05 | Mole fraction (SC-CO2, 303 K, 230 bar): 8.19e-05 | Mole fraction (SC-CO2, 303 K, 245 bar): 8.32e-05 | Mole fraction (SC-CO2, 313 K, 100 bar): 1.68e-05 | Mole fraction (SC-CO2, 313 K, 120 bar): 3.62e-05 | Mole fraction (SC-CO2, 313 K, 130 bar): 5.41e-05 | Mole fraction (SC-CO2, 313 K, 140 bar): 5.25e-05 | Mole fraction (SC-CO2, 313 K, 155 bar): 6.63e-05 | Mole fraction (SC-CO2, 313 K, 170 bar): 8.13e-05 | Mole fraction (SC-CO2, 313 K, 200 bar): 0.000125 | Mole fraction (SC-CO2, 313 K, 235 bar): 0.000138 | Mole fraction (SC-CO2, 313 K, 245 bar): 0.000149 | Mole fraction (SC-CO2, 323 K, 110 bar): 2.68e-05 | Mole fraction (SC-CO2, 323 K, 135 bar): 5.24e-05 | Mole fraction (SC-CO2, 323 K, 180 bar): 0.00014 | Mole fraction (SC-CO2, 323 K, 195 bar): 0.000148 | Mole fraction (SC-CO2, 323 K, 205 bar): 0.00016 | Mole fraction (SC-CO2, 323 K, 235 bar): 0.000196 | cross-over pressure (SC-CO2, isotherms at 303, 313 and 323 K (Fig. 3)): 110 bar | solubility of fat-soluble vitamin A in SC-CO2 (SC-CO2, under certain conditions): ~0.7 g/kg | solubility thermodynamic at 60 min (supercritical CO2 in a 10 mL static equilibrium cell, organic solvent or mixture, thermodynamic from solid, SC-CO2, 303–323 K, 90–235 bar, minimum at 303 K, 90 bar, maximum at 323 K, 235 bar, read-out: equilibrium solubility S of Vitamin A in SC-CO2, span over all conditions): 96 to 1040 µg/mL (≈ 335 to 3620 µM)
Structure (SMILES): CC1=C(/C=C/C(C)=C/C=C/C(C)=C/CO)C(C)(C)CCC1 [vitamin A, Retinol]
